19 compounds from ChEMBL document CHEMBL3593181, “Design and synthesis of benzothiazole-6-sulfonamides acting as highly potent inhibitors of carbonic anhydrase isoforms I, II, IX and XII” (Bioorg Med Chem, 2015) can be followed below.

As a reminder, the Ki is the dissociation constant of the complex between target and ligand, obtained from inhibition or displacement. A low value points to higher affinity.

The experiment deals with Carbonic anhydrase 9 (Homo sapiens, UniProt Q16790). In words: Inhibition of human carbonic anhydrase 9 by stopped flow CO2 hydration method.
Compound `Nc1cc(=O)[nH]c(SCC(=O)Nc2nc3ccc(S(N)(=O)=O)cc3s2)n1` showed an inhibition constant Ki of 253 nM.
`N#Cc1cnn(CC(=O)Nc2nc3ccc(S(N)(=O)=O)cc3s2)c1N` came in with an inhibition constant (Ki) of 276 nM.
For `N#Cc1cnn(CC(=O)Nc2nc3ccc(S(N)(=O)=O)cc3s2)c1NC(=S)Nc1ccccc1`, the Ki amounted to 2.8 nM.
With `NS(=O)(=O)c1ccc2nc(NC(=O)CSc3nc(O)cc(=O)[nH]3)sc2c1` the figure was 282 nM; with `CSc1nn(CC(=O)Nc2nc3ccc(S(N)(=O)=O)cc3s2)c2nc[nH]c(=O)c12`, 4.3 nM.
Next, `Nn1c(COc2ccc(Cl)cc2Cl)nnc1SCC(=O)Nc1nc2ccc(S(N)(=O)=O)cc2s1`: 135 nM; `NS(=O)(=O)c1ccc(NCC(=O)Nc2nc3ccc(S(N)(=O)=O)cc3s2)cc1`: 4.8 nM; `Nn1c(Cc2ccccc2)nnc1SCC(=O)Nc1nc2ccc(S(N)(=O)=O)cc2s1`: 244 nM.
With `CS/C(=N\c1nc2ccc(S(N)(=O)=O)cc2s1)N1CCN(/C(=N/c2nc3ccc(S(N)(=O)=O)cc3s2)SC)CC1` the figure was 2.3 nM.
On to `Nc1nc(SCC(=O)Nc2nc3ccc(S(N)(=O)=O)cc3s2)nc2[nH]ncc12`, for which the inhibitory constant (Ki) worked out at 172 nM.
Next, `NS(=O)(=O)c1ccc2nc(NC(=S)N3CCN(C(=S)Nc4nc5ccc(S(N)(=O)=O)cc5s4)CC3)sc2c1`: 2.6 nM.
Next, `CSc1nn(CC(=O)Nc2nc3ccc(S(N)(=O)=O)cc3s2)c(NC(=S)Nc2ccccc2)c1C#N`: 3.9 nM.
`CS/C(=N\c1nc2ccc(S(N)(=O)=O)cc2s1)NCCN/C(=N/c1nc2ccc(S(N)(=O)=O)cc2s1)SC` registered a Ki of 2.5 nM.
With `Nc1ncnc2c1cnn2CC(=O)Nc1nc2ccc(S(N)(=O)=O)cc2s1` the figure was 2.8 nM; with `CSc1nn(CC(=O)Nc2nc3ccc(S(N)(=O)=O)cc3s2)c2ncnc(N)c12`, 2.7 nM; with `NS(=O)(=O)c1ccc2nc(NC(=O)Cn3ncc4c(=O)[nH]cnc43)sc2c1`, 4.1 nM.
Next, `CSc1nn(CC(=O)Nc2nc3ccc(S(N)(=O)=O)cc3s2)c(N)c1C#N`: 295 nM.
Next, `NS(=O)(=O)c1ccc2nc(NC(=S)NCCNC(=S)Nc3nc4ccc(S(N)(=O)=O)cc4s3)sc2c1`: 2.1 nM.
In turn, `Cc1ccc(OCc2nnc(SCC(=O)Nc3nc4ccc(S(N)(=O)=O)cc4s3)n2N)cc1Cl` gave a Ki of 67.3 nM.
